Data published in US20080146987A1, “TREATMENT OF A SKIN CONDITION USING A PIPERINE-BASED COMPOSITION IN CONJUNCTION WITH IRRADIATION” (OREGON HEALTH & SCIENCE UNIVERSITY, priority 2006, published 2008).

Test system: HRA.HRII-c/+/Skh hairless pigmented mice
Assay: visual pigmentation score after topical compounds with or without UVB, 13-week protocols
Format: in vivo
Settings: HRA/Skh-II mice, four or more weeks
Method: Male and female inbred HRA.HRII-c/+/Skh hairless pigmented mice, age-matched (8-16 weeks old), were used in the following in vivo experiments for evaluation of pigmentation induced by piperine and/or UVR.
In one experiment, the compounds used included piperine, THP, CHP, and RCHP, each prepared in DMSO at a 50 mg/ml concentration, and applied to the backs of mice (n=4) twice daily on weekdays for 13 weeks, as shown in FIG. 3. As shown, Group A received treatment with compounds only from week 1-13. Group B was treated with compound from week 1-13, with additional UVB irradiation from weeks 5-13. Group F received UVB alone (no topical treatment) for 9 weeks, corresponding to weeks 5-13. Groups C, D and E were treated as Group B from weeks 1-7. All treatments was suspended for 3 weeks (8-10) and re-started as topical treatment with compounds only (Group C), UVB only (Group D), or topical treatment with UVB (Group E) from weeks 11-13.
Pigmentation was assessed visually by an investigator blinded to the treatment that the animals had received using the following scoring system: 0—no pigmentation; 1—first signs of pigmentation (spots); 2—light brown; 3—medium brown; 4—dark brown; 5—black. Scores obtained at the end of each week (Friday) are shown in FIG. 4 (piperine noted as PIP). […]

## O=C(CCCCc1ccc2c(c1)OCO2)NC1CCCCC1 [RCHP, 5-(3,4-methylenedioxyphenyl)-2,4-pentanoylcyclohexylamine]
  skin pigmentation in vivo after continuous topical application: stimulate the development of even skin pigmentation
